Experimental data published in US8957074B2 (Novartis AG, priority 2010, dated 2015).
Where two headings read alike, the source gives them in different places.

Experiments:
CDK4/cyclin D1 = CDK4/cyclin D1 (Homo sapiens (Human), UniProt P11802); test: CDK4/cyclin D1 enzymatic activity assay (TR-FRET, phosphorylation of pRb at Ser780); format: biochemical
Procedure, shortened: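 Phosphorylation at pRb Ser780, detected by TR-FRET, gave IC50s and kinetics. Enzyme: baculovirus/Sf21-expressed human CDK4/cyclin D1. ATP at 3 μM initiated the reaction; EDTA (pH 8.0) stopped it after 60 min at 22° C.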

[1] = test system: phosphorylation of pRb at the Ser780 site in JeKo-1 mantle cell lymphoma cells; test: CDK4 cellular assay: ELISA of pRb phosphorylation at Ser780 in JeKo-1 cells; format: cell-based; conditions: Homo sapiens
CDK1/cyclin B = CDK1/cyclin B (Homo sapiens (Human), UniProt P06493); test: CDK1/cyclin B enzymatic activity assay (IMAP-FP); format: biochemical; conditions: […] CDK1/cyclin B, 100 nM Tamra Histone-H1 peptide, 20 μM ATP, 120 min at room temperature; read-out: Biochemical CDK1 enzyme IC50
Sequence of CDK1/cyclin B (P06493 whole entry, species assumed): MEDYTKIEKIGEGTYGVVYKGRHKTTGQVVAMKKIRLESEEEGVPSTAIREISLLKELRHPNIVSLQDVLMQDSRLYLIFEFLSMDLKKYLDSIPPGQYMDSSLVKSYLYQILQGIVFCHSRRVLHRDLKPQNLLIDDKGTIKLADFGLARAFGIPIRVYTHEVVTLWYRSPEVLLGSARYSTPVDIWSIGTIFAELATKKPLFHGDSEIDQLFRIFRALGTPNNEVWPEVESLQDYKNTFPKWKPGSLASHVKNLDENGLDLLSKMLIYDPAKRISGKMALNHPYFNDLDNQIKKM
Sequence of CDK1/cyclin B (P14635 whole entry partner, species assumed): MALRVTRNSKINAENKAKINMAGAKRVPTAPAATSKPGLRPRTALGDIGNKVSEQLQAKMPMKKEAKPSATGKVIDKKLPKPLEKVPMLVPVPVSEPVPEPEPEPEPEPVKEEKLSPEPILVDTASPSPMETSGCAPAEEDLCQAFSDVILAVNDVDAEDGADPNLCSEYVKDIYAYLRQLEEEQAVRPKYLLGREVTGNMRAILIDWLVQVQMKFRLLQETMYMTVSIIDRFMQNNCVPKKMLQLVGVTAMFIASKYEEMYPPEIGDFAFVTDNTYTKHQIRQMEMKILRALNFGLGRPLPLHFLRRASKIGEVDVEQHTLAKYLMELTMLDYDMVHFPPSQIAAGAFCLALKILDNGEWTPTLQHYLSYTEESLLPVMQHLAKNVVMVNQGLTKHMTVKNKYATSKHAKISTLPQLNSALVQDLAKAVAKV
Description: CDK1/Cyclin B Enzymatic Activity Assay
A 384-well microtiter IMAP-FP™ (Molecular Devices Trade Mark Technology) endpoint assay was used for CDK1/cyclin B kinase activity measurements. The same assay was used for IC50 determination of small molecule inhibitors.

[2] = 0.3 nM CDK4/cyclin D1, 150 nM biotin-pRb (773-924), 3 μM ATP, 60 min at 22° C., read-out: Biochemical CDK4 enzyme IC50
[3] = JeKo-1 cells, p-pRb % inhibition adjusted with total pRb levels, read-out: Normalized cellular ppRb inhibition IC50
[4] = JeKo-1 cells, p-pRb Ser780 ELISA, non-normalized, read-out: Cellular ppRb inhibition IC50
[5] = JeKo-1, JeKo-1 cells, p-pRb % inhibition adjusted with total pRb levels, read-out: Normalized cellular ppRb inhibition IC50
[6] = JeKo-1, JeKo-1 cells, p-pRb Ser780 ELISA, non-normalized, read-out: Cellular ppRb inhibition IC50
[7] = JeKo-1, read-out: Cellular ppRb inhibition IC50
[8] = JeKo-1, read-out: Normalized cellular ppRb inhibition IC50

Sequence of CDK4/cyclin D1 (P11802 whole entry): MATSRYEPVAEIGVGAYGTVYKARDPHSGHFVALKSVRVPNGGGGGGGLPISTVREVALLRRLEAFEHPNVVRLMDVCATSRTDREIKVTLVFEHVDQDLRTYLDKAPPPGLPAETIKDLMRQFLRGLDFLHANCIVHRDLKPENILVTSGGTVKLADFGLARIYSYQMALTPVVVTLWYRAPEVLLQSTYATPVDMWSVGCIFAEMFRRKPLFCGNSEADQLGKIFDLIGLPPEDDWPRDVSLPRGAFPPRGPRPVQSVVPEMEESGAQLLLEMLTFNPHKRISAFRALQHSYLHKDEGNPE
Sequence of CDK4/cyclin D1 (P24385 whole entry partner): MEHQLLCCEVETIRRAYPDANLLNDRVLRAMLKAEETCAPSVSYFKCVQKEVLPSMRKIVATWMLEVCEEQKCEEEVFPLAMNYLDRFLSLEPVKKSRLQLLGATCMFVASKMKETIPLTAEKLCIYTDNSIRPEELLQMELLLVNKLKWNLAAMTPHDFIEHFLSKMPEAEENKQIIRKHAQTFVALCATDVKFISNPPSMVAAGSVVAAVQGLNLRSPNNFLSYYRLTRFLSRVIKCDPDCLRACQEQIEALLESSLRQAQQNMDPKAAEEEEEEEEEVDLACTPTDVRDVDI

`CN(C)C(=O)c1cc2cnc(Nc3ccc(C(=O)N4CC5CCC(C4)N5C(=O)CN)cn3)nc2n1C1CCCC1` [Example 60, 2-{5-[8-(2-Amino-acetyl)-3,8-diaza-bicyclo[3.2.1]octane-3-carbonyl]-pyridin-2-ylamino}-7-cyclopentyl-7H-pyrrolo[2,3-d]pyrimidine-6-carboxylic acid dimethylamide] was tested, and the IC50 (CDK4/cyclin D1; [2]) was 19 nM, the IC50 [1, 3] was 47 nM and the IC50 [1, 4] was 21 nM. It also gave an IC50 (CDK1/cyclin B) of over 15000 nM.

With `CN(C)C(=O)c1cc2cnc(Nc3ccc(C(=O)N4CC5CCC(C4)C5O)cn3)nc2n1C1CCCC1` [Example 33, 7-cyclopentyl-2-(5-((1R,5S,8r)-8-hydroxy-3-azabicyclo[3.2.1]octane-3-carbonyl)pyridin-2-ylamino)-N,N-dimethyl-7H-pyrrolo[2,3-d]pyrimidine-6-carboxamide] the IC50 (CDK4/cyclin D1; [2]) was 94 to 144 nM, the IC50 [1, 3] was 430 to 1300 nM and the IC50 [1, 4] was 377 to 919 nM. For the same molecule, the IC50 (CDK1/cyclin B) was over 15000 nM.

Work on `CN(C)C(=O)c1cc2cnc(Nc3ccc(N4CC5CCC(CC4=O)N5)cn3)nc2n1-c1ccccc1` (centres unmarked) [Example 128, 2-[5-(4-oxo-3,9-diaza-bicyclo[4.2.1]non-3-yl)-pyridin-2-ylamino]-7-phenyl-7H-pyrrolo[2,3-d]pyrimidine-6-carboxylic acid dimethylamide] yielded an IC50 (CDK4/cyclin D1; [2]) of 9 nM, an IC50 [1, 5] of 140 nM and an IC50 [1, 6] of 81 nM. It also gave an IC50 (CDK1/cyclin B) of over 15000 nM.

`CN(C)C(=O)c1cc2cnc(Nc3ccc(N4CC5CCC(CC4=O)N5)cn3)nc2n1C1CCC1` (centres unmarked) [Example 134, 7-Cyclobutyl-2-[5-(4-oxo-3,9-diaza-bicyclo[4.2.1]non-3-yl)-pyridin-2-ylamino]-7H-pyrrolo[2,3-d]pyrimidine-6-carboxylic acid dimethylamide] gave an IC50 (CDK4/cyclin D1; [2]) of 8 nM, an IC50 [1, 5] of 123 nM and an IC50 [1, 6] of 66 nM. For the same molecule, the IC50 (CDK1/cyclin B) was over 15000 nM.

Work on `CN(C)C(=O)c1cc2cnc(Nc3ccc(C(=O)N4CC5CCC(C4)N5)cn3)nc2n1[C@@H]1C[C@H]2CC[C@@H]1C2` (stereo in doubt) [Example 36, 7-(1R,2R,4S)-Bicyclo[2.2.1]hept-2-yl-2-[5-(3,8-diaza-bicyclo[3.2.1]octane-3-carbonyl)-pyridin-2-ylamino]-7H-pyrrolo[2,3-d]pyrimidine-6-carboxylic acid dimethylamide] yielded an IC50 (CDK4/cyclin D1; [2]) of 3 nM, an IC50 [1, 5] of 28 nM and an IC50 [1, 6] of 23 nM. For the same molecule, the IC50 (CDK1/cyclin B) was 13000 nM.

With `CN(C)C(=O)c1cc2cnc(Nc3ccc(N4C[C@]5(CCCNC5)OC4=O)cn3)nc2n1C1CCCC1` [Example 110, 7-Cyclopentyl-2-[5-((R)-2-oxo-1-oxa-3,7-diaza-spiro[4.5]dec-3-yl)-pyridin-2-ylamino]-7H-pyrrolo[2,3-d]pyrimidine-6-carboxylic acid dimethylamide] the IC50 (CDK4/cyclin D1; [2]) was 8 nM, the IC50 [1, 3] was 62 nM and the IC50 [1, 4] was 41 nM. It also gave an IC50 (CDK1/cyclin B) of over 15000 nM.

For `CN(C)C(=O)c1cc2cnc(Nc3ccc(C(=O)N4CC5CC5(N(C)C)C4)cn3)nc2n1C1CCCC1` (centres unmarked) [Example 17, 7-Cyclopentyl-2-[5-(1-dimethylamino-3-aza-bicyclo[3.1.0]hexane-3-carbonyl)-pyridin-2-ylamino]-7H-pyrrolo[2,3-d]pyrimidine-6-carboxylic acid dimethylamide], the IC50 (CDK4/cyclin D1; [2]) was 65 nM, the IC50 [1, 3] was 643 nM and the IC50 [1, 4] was 281 nM. It also gave an IC50 (CDK1/cyclin B) of over 15000 nM.

In the case of `CN(C)C(=O)c1cc2cnc(Nc3ccc(N4C[C@@]5(CCCNCC5)OC4=O)cn3)nc2n1C1CCCC1` [Example 105, 7-Cyclopentyl-2-[5-((S)-2-oxo-1-oxa-3,8-diaza-spiro[4.6]undec-3-yl)-pyridin-2-ylamino]-7H-pyrrolo[2,3-d]pyrimidine-6-carboxylic acid dimethylamide], the IC50 (CDK4/cyclin D1; [2]) is reported as 12 nM, the IC50 [1, 3] is reported as 100 nM and the IC50 [1, 4] is reported as 61 nM. It also gave an IC50 (CDK1/cyclin B) of over 15000 nM.

`CN(C)C(=O)c1cc2cnc(Nc3ccc(N4CCN5CCCC5C4)cn3)nc2n1C1CCCC1` (centres unmarked) [Example 116, 7-cyclopentyl-2-(5-(hexahydropyrrolo[1,2-a]pyrazin-2(1H)-yl)pyridin-2-ylamino)-N,N-dimethyl-7H-pyrrolo[2,3-d]pyrimidine-6-carboxamide] gave an IC50 (CDK4/cyclin D1; [2]) of 110 nM, an IC50 [1, 7] of 604 nM and an IC50 [1, 8] of 605 nM. The IC50 (CDK1/cyclin B) was over 15000 nM.

Work on `CN1CC2(C)CN(C(=O)c3ccc(Nc4ncc5cc(C(=O)N(C)C)n(C6CCCC6)c5n4)nc3)CC(C)(C1)C2O` (centres unmarked) [Example 39, 7-Cyclopentyl-2-(5-(9-hydroxy-1,5,7-trimethyl-3,7-diazabicyclo[3.3.1]nonane-3-carbonyl)pyridin-2-ylamino)-N,N-dimethyl-7H-pyrrolo[2,3-d]pyrimidine-6-carboxamide] yielded an IC50 (CDK4/cyclin D1; [2]) of 77 nM, an IC50 [1, 3] of 136 nM and an IC50 [1, 4] of 79 nM. The IC50 (CDK1/cyclin B) was over 15000 nM.

In the case of `CN(C)C(=O)c1cc2cnc(Nc3ccc(C(=O)N4C[C@@H]5C[C@]5(N)C4)cn3)nc2n1C1CCCC1` (stereo in doubt) [Example 15, 2-[5-((S)-1-Amino-3-aza-bicyclo[3.1.0]hexane-3-carbonyl)-pyridin-2-ylamino]-7-cyclopentyl-7H-pyrrolo[2,3-d]pyrimidine-6-carboxylic acid dimethylamide], the IC50 (CDK4/cyclin D1; [2]) is reported as 18 nM, the IC50 [1, 5] is reported as 264 nM and the IC50 [1, 6] is reported as 43 nM. For the same molecule, the IC50 (CDK1/cyclin B) was over 15000 nM.

`CN(C)C(=O)c1cc2cnc(Nc3ccc(C(=O)N4CC5CCC(C4)N5)cn3)nc2n1[C@H]1CC[C@H](C(C)(C)C)CC1` [Example 37, 7-(4-tert-Butyl-cyclohexyl)-2-[5-(3,8-diaza-bicyclo[3.2.1]octane-3-carbonyl)-pyridin-2-ylamino]-7H-pyrrolo[2,3-d]pyrimidine-6-carboxylic acid dimethylamide] showed an IC50 (CDK4/cyclin D1) of 5 to 6 nM, an IC50 [1, 5] of 288 to 438 nM and an IC50 [1, 6] of 121 to 301 nM. For the same molecule, the IC50 (CDK1/cyclin B) was over 15000 nM.

`Cc1nc(Nc2ncc3cc(C(=O)N(C)C)n(C4CCCC4)c3n2)ccc1C(=O)N1CC2CCC(C1)N2` [Example 50, 7-Cyclopentyl-2-[5-(3,8-diaza-bicyclo[3.2.1]octane-3-carbonyl)-6-methyl-pyridin-2-ylamino]-7H-pyrrolo[2,3-d]pyrimidine-6-carboxylic acid dimethylamide] showed an IC50 (CDK4/cyclin D1; [2]) of 21 nM, an IC50 [1, 5] of 90 nM and an IC50 [1, 6] of 41 nM. It also gave an IC50 (CDK1/cyclin B) of over 15000 nM.

`CN(C)C(=O)c1cc2cnc(Nc3ccc(C(=O)N4CCN5CCCC5C4)cn3)nc2n1C1CCCC1` (centres unmarked) [Example 20, 7-Cyclopentyl-2-[5-(hexahydro-pyrrolo[1,2-a]pyrazine-2-carbonyl)-pyridin-2-ylamino]-7H-pyrrolo[2,3-d]pyrimidine-6-carboxylic acid dimethylamide] showed an IC50 (CDK4/cyclin D1; [2]) of 64 nM, an IC50 [1, 5] of 452 nM and an IC50 [1, 6] of 267 nM. It also gave an IC50 (CDK1/cyclin B) of over 15000 nM.

In the case of `CN(C)C(=O)c1cc2cnc(Nc3ccc(C(=O)N4CC5CCC(C4)N5C)cn3)nc2n1C1CCCC1` [Example 45, 7-cyclopentyl-2-[5-(8-methyl-3,8-diaza-bicyclo[3.2.1]octane-3-carbonyl)-pyridin-2-ylamino]-7H-pyrrolo[2,3-d]pyrimidine-6-carboxylic acid dimethylamide], the IC50 (CDK4/cyclin D1; [2]) is reported as 14 to 24 nM, the IC50 [1, 5] is reported as 64 nM and the IC50 [1, 6] is reported as 64 nM. It also gave an IC50 (CDK1/cyclin B) of 12800 nM.

With `CN(C)C(=O)c1cc2cnc(Nc3ccc(N4C[C@@H]5CC[C@H](CC4=O)N5)cn3)nc2n1C1CCC1` [Example 135, 7-Cyclobutyl-2-[5-((1S,6R)-4-oxo-3,9-diaza-bicyclo[4.2.1]non-3-yl)-pyridin-2-ylamino]-7H-pyrrolo[2,3-d]pyrimidine-6-carboxylic acid dimethylamide] the IC50 (CDK4/cyclin D1; [2]) was 7 nM, the IC50 [1, 5] was 38 nM and the IC50 [1, 6] was 19 nM. The IC50 (CDK1/cyclin B) was over 15000 nM.

Molecule `CN(C)C(=O)c1cc2cnc(Nc3ccc(N4CCN5CCCC5C4=O)cn3)nc2n1C1CCCCC1` (centres unmarked) [Example 98, 7-Cyclohexyl-2-[5-(1-oxo-hexahydro-pyrrolo[1,2-a]pyrazin-2-yl)-pyridin-2-ylamino]-7H-pyrrolo[2,3-d]pyrimidine-6-carboxylic acid dimethylamide] has an IC50 (CDK4/cyclin D1; [2]) of 16 to 98 nM, an IC50 [1, 7] of 136 to 266 nM and an IC50 [1, 8] of 291 to 887 nM. It also gave an IC50 (CDK1/cyclin B) of over 15000 nM.

For `CN(C)C(=O)c1cc2cnc(Nc3ccc(C(=O)N4CC5CC5(N)C4)cn3)nc2n1C1CCCC1` (racemic) [Example 14, 2-[5-(1-Amino-3-aza-bicyclo[3.1.0]hexane-3-carbonyl)-pyridin-2-ylamino]-7-cyclopentyl-7H-pyrrolo[2,3-d]pyrimidine-6-carboxylic acid dimethylamide], the IC50 (CDK4/cyclin D1; [2]) was 19 nM, the IC50 [1, 5] was 371 nM and the IC50 [1, 6] was 133 nM. The IC50 (CDK1/cyclin B) was over 15000 nM.

`CN(C)C(=O)c1cc2cnc(Nc3ccc(C(=O)N4CCN5CCC4CC5)cn3)nc2n1C1CCCC1` [Example 48, 7-Cyclopentyl-2-[5-(1,4-diaza-bicyclo[3.2.2]nonane-4-carbonyl)-pyridin-2-ylamino]-7H-pyrrolo[2,3-d]pyrimidine-6-carboxylic acid dimethylamide] was tested, and the IC50 (CDK4/cyclin D1; [2]) was 24 nM, the IC50 [1, 3] was 229 nM and the IC50 [1, 4] was 152 nM. It also gave an IC50 (CDK1/cyclin B) of over 15000 nM.

`CN(C)C(=O)c1cc2cnc(Nc3ccc(N4CC5CNCC5CC4=O)cn3)nc2n1C1CCCCCC1` (racemic) [Example 87, 7-cycloheptyl-N,N-dimethyl-2-(5-(cis-6-oxotetrahydro-1H-pyrrolo[3,4-c]pyridin-5(6H,7H,7aH)-yl)pyridin-2-ylamino)-7H-pyrrolo[2,3-d]pyrimidine-6-carboxamide] was tested, and the IC50 (CDK4/cyclin D1; [2]) was under 5 nM, the IC50 [1, 7] was 5 to 8 nM and the IC50 [1, 8] was 6 to 15 nM. For the same molecule, the IC50 (CDK1/cyclin B) was 4140 nM.
